Assay results: ChEMBL document CHEMBL1681651, “A broad spectrum anticancer nucleoside with selective toxicity against human colon cells in vitro” (2011)

Legend:
Format in all cases: functional
[1] = test system: ACHN; assay: Growth inhibition of human ACHN cells assessed as cell growth at 1 uM after 48 hrs by SRB assay; details: read-out: Activity
[2] = test system: MDA-MB-231; assay: Growth inhibition of human MDA-MB-231 cells assessed as cell growth at 1 uM after 48 hrs by SRB assay; details: MDA-MB-231, 48 h, read-out: Activity
[3] = test system: HCC 2998; assay: Growth inhibition of human HCC2998 cells assessed as cell growth at 10 uM after 48 hrs by SRB assay; details: HCC 2998, 48 h, read-out: Activity
[4] = test system: HT-29; assay: Growth inhibition of human HT-29 cells assessed as cell growth at 10 uM after 48 hrs by SRB assay; details: HT-29, 48 h, read-out: Activity
[5] = test system: SF-268; assay: Growth inhibition of human SF268 cells assessed as cell growth at 10 uM after 48 hrs by SRB assay; details: SF-268, 48 h, read-out: Activity
[6] = test system: HCT-15; assay: Growth inhibition of human HCT15 cells after 48 hrs by […] growth inhibition assay; details: HCT-15, 48 h
[7] = test system: UACC-257; assay: Growth inhibition of human UACC257 cells after 48 hrs by […] growth inhibition assay; details: UACC-257, 48 h
[8] = test system: BT-549; assay: Growth inhibition of human BT549 cells after 48 hrs by […] growth inhibition assay; details: BT-549, 48 h
[9] = test system: MDA-MB-231; assay: Growth inhibition of human MDA-MB-231 cells after 48 hrs by […] growth inhibition assay; details: MDA-MB-231, 48 h
[10] = test system: MDA-MB-468; assay: Growth inhibition of human MDA-MB-468 cells after 48 hrs by […] growth inhibition assay; details: MDA-MB-468, 48 h
[11] = test system: SF-268; assay: Growth inhibition of human SF268 cells assessed as cell growth at 0.1 uM after 48 hrs by SRB assay; details: SF-268, 48 h, read-out: Activity
[12] = test system: SNB-19; assay: Growth inhibition of human SNB19 cells assessed as cell growth at 0.1 uM after 48 hrs by SRB assay; details: SNB-19, 48 h, read-out: Activity
[13] = test system: UACC-257; assay: Growth inhibition of human UACC257 cells assessed as cell growth at 0.1 uM after 48 hrs by SRB assay; details: UACC-257, 48 h, read-out: Activity
[14] = test system: OVCAR-4; assay: Growth inhibition of human OVCAR4 cells assessed as cell growth at 0.1 uM after 48 hrs by SRB assay; details: OVCAR-4, 48 h, read-out: Activity
[15] = test system: SK-OV-3; assay: Growth inhibition of human SKOV3 cells assessed as cell growth at 0.1 uM after 48 hrs by SRB assay; details: SK-OV-3, 48 h, read-out: Activity
[16] = test system: OVCAR-4; assay: Growth inhibition of human OVCAR4 cells assessed as cell growth at 10 uM after 48 hrs by SRB assay; details: OVCAR-4, 48 h, read-out: Activity
[17] = test system: RXF 393; assay: Growth inhibition of human RXF393 cells assessed as cell growth at 10 uM after 48 hrs by SRB assay; details: RXF 393, 48 h, read-out: Activity
[18] = test system: TK-10; assay: Growth inhibition of human TK10 cells assessed as cell growth at 10 uM after 48 hrs by SRB assay; details: TK-10, 48 h, read-out: Activity
[19] = test system: T47D; assay: Growth inhibition of human T47D cells assessed as cell growth at 10 uM after 48 hrs by SRB assay; details: read-out: Activity
[20] = test system: A549; assay: Growth inhibition of human A549 cells assessed as cell growth at 100 uM after 48 hrs by SRB assay; details: A549, 48 h, read-out: Activity
[21] = test system: U-251; assay: Growth inhibition of human U251 cells assessed as cell growth at 100 uM after 48 hrs by SRB assay; details: U-251, 48 h, read-out: Activity
[22] = test system: BT-549; assay: Growth inhibition of human BT549 cells assessed as cell growth at 100 uM after 48 hrs by SRB assay; details: BT-549, 48 h, read-out: Activity
[23] = Growth inhibition of human […] cells assessed as cell growth at 1 mM after 48 hrs by SRB assay; details: read-out: Activity
[24] = test system: NCI-H23; assay: Growth inhibition of human NCI-H23 cells assessed as cell growth at 1 mM after 48 hrs by SRB assay; details: NCI-H23, 48 h, read-out: Activity
[25] = test system: COLO 205; assay: Growth inhibition of human COLO205 cells assessed as cell growth at 1 mM after 48 hrs by SRB assay; details: COLO 205, 48 h, read-out: Activity
[26] = test system: HT-29; assay: Growth inhibition of human HT-29 cells assessed as cell growth at 1 mM after 48 hrs by SRB assay; details: HT-29, 48 h, read-out: Activity
[27] = test system: M14; assay: Growth inhibition of human M14 cells assessed as cell growth at 1 mM after 48 hrs by SRB assay; details: M14, 48 h, read-out: Activity
[28] = test system: ACHN; assay: Growth inhibition of human ACHN cells assessed as cell growth at 1 mM after 48 hrs by SRB assay; details: read-out: Activity
[29] = test system: T47D; assay: Growth inhibition of human T47D cells assessed as cell growth at 1 mM after 48 hrs by SRB assay; details: read-out: Activity
[30] = test system: T47D; assay: Growth inhibition of human T47D cells assessed as cell growth at 0.1 uM after 48 hrs by SRB assay; details: read-out: Activity
[31] = test system: COLO 205; assay: Growth inhibition of human COLO205 cells assessed as cell growth at 1 uM after 48 hrs by SRB assay; details: COLO 205, 48 h, read-out: Activity
[32] = test system: HT-29; assay: Growth inhibition of human HT-29 cells assessed as cell growth at 1 uM after 48 hrs by SRB assay; details: HT-29, 48 h, read-out: Activity
[33] = test system: SF-268; assay: Growth inhibition of human SF268 cells assessed as cell growth at 1 uM after 48 hrs by SRB assay; details: SF-268, 48 h, read-out: Activity
[34] = test system: SF-539; assay: Growth inhibition of human SF539 cells assessed as cell growth at 1 uM after 48 hrs by SRB assay; details: SF-539, 48 h, read-out: Activity
[35] = test system: LOX IMVI; assay: Growth inhibition of human LOXIMVI cells assessed as cell growth at 1 uM after 48 hrs by SRB assay; details: read-out: Activity
[36] = test system: IGROV-1; assay: Growth inhibition of human IGROV1 cells assessed as cell growth at 1 uM after 48 hrs by SRB assay; details: IGROV-1, 48 h, read-out: Activity
[37] = read-out: LC50 (the source's name)
[38] = read-out: pLC50 (the source's name) (converted)

`CNC(=O)NC[C@H]1O[C@@H](n2cnc3c(NC(=O)Nc4ccccc4)ncnc32)[C@H](O[Si](C)(C)C(C)(C)C)[C@@H]1O[Si](C)(C)C(C)(C)C` showed a growth at 1 µM [1] of 108%, a growth at 1 µM [2] of 109% and a growth at 10 µM [3] of 106%. It also gave a growth at 10 µM [4] of 107%, a growth at 10 µM [5] of 102% and a GI50 ([6]; read-out: GI50) of 3.62 µM. It also gave a CC50 [6, 37] of over 100 µM, a TGI ([6]; read-out: TGI) of over 100 µM and a GI50 ([6]; read-out: pGI50 (converted)) of 3.63 µM. It also gave a CC50 [6, 38] of over 100 µM, a TGI ([6]; read-out: pTGI) of over 100 µM and a GI50 ([7]; read-out: GI50) of 3.78 µM. The CC50 [7, 37] was over 100 µM, the TGI ([7]; read-out: TGI) was 20.2 µM and the GI50 ([7]; read-out: pGI50 (converted)) was 3.8 µM. It also gave a CC50 [7, 38] of over 100 µM, a TGI ([7]; read-out: pTGI (converted)) of 20 µM and a GI50 ([8]; read-out: GI50) of 2.94 µM. For the same compound, the CC50 [8, 37] was over 100 µM, the TGI ([8]; read-out: TGI) was 8.18 µM and the GI50 ([8]; read-out: pGI50 (converted)) was 2.95 µM. It also gave a CC50 [8, 38] of over 100 µM, a TGI ([8]; read-out: pTGI (converted)) of 8.13 µM and a GI50 ([9]; read-out: GI50) of 2.61 µM. For the same compound, the CC50 [9, 37] was 28.3 µM, the TGI ([9]; read-out: TGI) was 6.12 µM and the GI50 ([9]; read-out: pGI50 (converted)) was 2.63 µM. The CC50 [9, 38] was 28.2 µM, the TGI ([9]; read-out: pTGI (converted)) was 6.17 µM and the GI50 ([10]; read-out: GI50) was 3.35 µM. The CC50 [10, 37] was over 100 µM, the TGI ([10]; read-out: TGI) was 13.9 µM and the GI50 ([10]; read-out: pGI50 (converted)) was 3.39 µM. The CC50 [10, 38] was over 100 µM, the TGI ([10]; read-out: pTGI (converted)) was 13.8 µM and the growth at 0.1 µM [11] was 104%. For the same compound, the growth at 0.1 µM [12] was 97%, the growth at 0.1 µM [13] was 97% and the growth at 0.1 µM [14] was 106%. For the same compound, the growth at 0.1 µM [15] was 108%, the growth at 10 µM [16] was 100% and the growth at 10 µM [17] was 111%. The growth at 10 µM [18] was 112%, the growth at 10 µM [19] was 92% and the growth at 100 µM [20] was 4%. The growth at 100 µM [21] was 2%, the growth at 100 µM [22] was -10% and the growth at 1000 µM [23] was 4%. For the same compound, the growth at 1000 µM [24] was -53%, the growth at 1000 µM [25] was -94% and the growth at 1000 µM [26] was -100%. It also gave a growth at 1000 µM [27] of -52%, a growth at 1000 µM [28] of 2% and a growth at 1000 µM [29] of -32%. The growth at 0.1 µM [30] was 101%, the growth at 1 µM [31] was 111% and the growth at 1 µM [32] was 104%. It also gave a growth at 1 µM [33] of 106%, a growth at 1 µM [34] of 100% and a growth at 1 µM [35] of 101%. It also gave a growth at 1 µM [36] of 99%.
Compound `CCOC(=O)C[C@H]1[C@@H](O[Si](C)(C)C(C)(C)C)[C@H](n2cnc3c(NC(=O)Nc4ccccc4)ncnc32)O[C@@H]1CNC(=O)NC` has a growth at 1 µM [1] of 97%, a growth at 1 µM [2] of 103% and a growth at 10 µM [3] of 93%. It also gave a growth at 10 µM [4] of 104%, a growth at 10 µM [5] of 93% and a GI50 ([6]; read-out: GI50) of 8.5 µM. It also gave a CC50 [6, 37] of over 100 µM, a TGI ([6]; read-out: TGI) of over 100 µM and a GI50 ([6]; read-out: pGI50 (converted)) of 8.51 µM. It also gave a CC50 [6, 38] of over 100 µM, a TGI ([6]; read-out: pTGI) of over 100 µM and a GI50 ([7]; read-out: GI50) of 5.68 µM. The CC50 [7, 37] was over 100 µM, the TGI ([7]; read-out: TGI) was over 100 µM and the GI50 ([7]; read-out: pGI50 (converted)) was 5.62 µM. For the same compound, the CC50 [7, 38] was over 100 µM, the TGI ([7]; read-out: pTGI (converted)) was over 100 µM and the GI50 ([8]; read-out: GI50) was over 100 µM. It also gave a CC50 [8, 37] of over 100 µM, a TGI ([8]; read-out: TGI) of over 100 µM and a GI50 ([8]; read-out: pGI50 (converted)) of over 100 µM. For the same compound, the CC50 [8, 38] was over 100 µM, the TGI ([8]; read-out: pTGI (converted)) was over 100 µM and the GI50 ([9]; read-out: GI50) was 3.96 µM. For the same compound, the CC50 [9, 37] was over 100 µM, the TGI ([9]; read-out: TGI) was 41.3 µM and the GI50 ([9]; read-out: pGI50 (converted)) was 3.98 µM. It also gave a CC50 [9, 38] of over 100 µM, a TGI ([9]; read-out: pTGI (converted)) of 41.7 µM and a CC50 [10, 37] of over 100 µM. The growth at 0.1 µM [11] was 102%, the growth at 0.1 µM [12] was 92% and the growth at 0.1 µM [13] was 102%. It also gave a growth at 0.1 µM [14] of 98%, a growth at 0.1 µM [15] of 96% and a growth at 10 µM [16] of 95%. It also gave a growth at 10 µM [17] of 92%, a growth at 10 µM [18] of 105% and a growth at 10 µM [19] of 73%. The growth at 100 µM [20] was 23%, the growth at 100 µM [21] was 28% and the growth at 100 µM [22] was 67%. It also gave a growth at 1000 µM [23] of -57%, a growth at 1000 µM [24] of 36% and a growth at 1000 µM [25] of 3%. The growth at 1000 µM [26] was 3%, the growth at 1000 µM [27] was -56% and the growth at 1000 µM [28] was 35%. It also gave a growth at 1000 µM [29] of 13%, a growth at 0.1 µM [30] of 91% and a growth at 1 µM [31] of 97%. The growth at 1 µM [32] was 105%, the growth at 1 µM [33] was 103% and the growth at 1 µM [34] was 91%. For the same compound, the growth at 1 µM [35] was 97% and the growth at 1 µM [36] was 94%.
